The text below walks through data of ChEMBL document CHEMBL5576135, “Discovery of Indolo[3,2-c]isoquinoline Derivatives as Novel Top1/2 Dual Inhibitors with Orally Efficacious Antitumor Activity and Low Toxicity” (J Med Chem, 2024).

For experiment [1], the target named is DNA topoisomerase 2-alpha (Homo sapiens) (UniProt P11388). Nature of the experiment: Inhibition of Topoisomerase 2 (unknown origin) using pBR322 DNA as substrate at 100 uM incubated for 15 mins by EtBr staining based agarose gel electrophoresis method relative to control.
DNA topoisomerase 2-alpha (Homo sapiens), sequence (P11388 whole entry): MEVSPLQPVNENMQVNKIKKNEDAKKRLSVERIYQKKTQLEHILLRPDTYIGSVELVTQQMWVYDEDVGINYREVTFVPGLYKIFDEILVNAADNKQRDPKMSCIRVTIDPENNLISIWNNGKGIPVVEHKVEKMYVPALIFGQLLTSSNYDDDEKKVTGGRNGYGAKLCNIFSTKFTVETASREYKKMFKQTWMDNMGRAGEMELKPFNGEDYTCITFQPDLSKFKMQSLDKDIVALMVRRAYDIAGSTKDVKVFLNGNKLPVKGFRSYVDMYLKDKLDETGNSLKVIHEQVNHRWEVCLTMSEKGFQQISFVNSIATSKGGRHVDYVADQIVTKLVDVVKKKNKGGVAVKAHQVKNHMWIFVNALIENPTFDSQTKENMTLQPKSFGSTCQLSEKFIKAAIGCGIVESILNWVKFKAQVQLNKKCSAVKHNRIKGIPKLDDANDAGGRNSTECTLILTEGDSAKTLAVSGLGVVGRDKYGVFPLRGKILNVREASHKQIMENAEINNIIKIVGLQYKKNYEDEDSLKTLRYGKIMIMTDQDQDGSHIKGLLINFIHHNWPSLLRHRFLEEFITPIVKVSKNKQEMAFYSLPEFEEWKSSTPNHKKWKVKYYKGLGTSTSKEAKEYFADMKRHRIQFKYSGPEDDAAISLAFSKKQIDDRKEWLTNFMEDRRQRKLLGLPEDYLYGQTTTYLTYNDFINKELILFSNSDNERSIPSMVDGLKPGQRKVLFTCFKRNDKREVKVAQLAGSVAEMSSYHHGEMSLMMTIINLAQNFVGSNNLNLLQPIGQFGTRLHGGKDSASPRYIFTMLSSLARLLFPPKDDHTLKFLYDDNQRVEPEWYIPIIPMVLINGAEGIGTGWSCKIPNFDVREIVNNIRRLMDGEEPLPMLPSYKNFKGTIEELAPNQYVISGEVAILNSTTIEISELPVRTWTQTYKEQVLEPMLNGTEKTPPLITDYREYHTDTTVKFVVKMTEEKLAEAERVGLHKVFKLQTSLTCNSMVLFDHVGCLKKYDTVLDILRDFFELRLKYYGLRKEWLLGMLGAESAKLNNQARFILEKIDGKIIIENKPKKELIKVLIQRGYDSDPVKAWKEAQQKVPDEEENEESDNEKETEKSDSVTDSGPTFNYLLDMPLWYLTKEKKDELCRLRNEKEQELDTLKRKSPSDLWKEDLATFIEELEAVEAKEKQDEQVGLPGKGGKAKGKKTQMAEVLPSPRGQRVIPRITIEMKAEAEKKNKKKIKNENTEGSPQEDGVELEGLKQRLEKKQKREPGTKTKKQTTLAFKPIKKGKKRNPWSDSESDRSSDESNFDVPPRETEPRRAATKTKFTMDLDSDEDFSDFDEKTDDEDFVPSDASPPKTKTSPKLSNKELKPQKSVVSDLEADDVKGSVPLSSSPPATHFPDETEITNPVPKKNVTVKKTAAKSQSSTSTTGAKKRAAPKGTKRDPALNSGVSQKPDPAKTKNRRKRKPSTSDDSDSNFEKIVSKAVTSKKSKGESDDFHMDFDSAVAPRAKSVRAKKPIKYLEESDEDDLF
In experiment [2] the target is T1, DNA topoisomerase 1 (Homo sapiens) (UniProt P11387).
T1 sequence (whole entry): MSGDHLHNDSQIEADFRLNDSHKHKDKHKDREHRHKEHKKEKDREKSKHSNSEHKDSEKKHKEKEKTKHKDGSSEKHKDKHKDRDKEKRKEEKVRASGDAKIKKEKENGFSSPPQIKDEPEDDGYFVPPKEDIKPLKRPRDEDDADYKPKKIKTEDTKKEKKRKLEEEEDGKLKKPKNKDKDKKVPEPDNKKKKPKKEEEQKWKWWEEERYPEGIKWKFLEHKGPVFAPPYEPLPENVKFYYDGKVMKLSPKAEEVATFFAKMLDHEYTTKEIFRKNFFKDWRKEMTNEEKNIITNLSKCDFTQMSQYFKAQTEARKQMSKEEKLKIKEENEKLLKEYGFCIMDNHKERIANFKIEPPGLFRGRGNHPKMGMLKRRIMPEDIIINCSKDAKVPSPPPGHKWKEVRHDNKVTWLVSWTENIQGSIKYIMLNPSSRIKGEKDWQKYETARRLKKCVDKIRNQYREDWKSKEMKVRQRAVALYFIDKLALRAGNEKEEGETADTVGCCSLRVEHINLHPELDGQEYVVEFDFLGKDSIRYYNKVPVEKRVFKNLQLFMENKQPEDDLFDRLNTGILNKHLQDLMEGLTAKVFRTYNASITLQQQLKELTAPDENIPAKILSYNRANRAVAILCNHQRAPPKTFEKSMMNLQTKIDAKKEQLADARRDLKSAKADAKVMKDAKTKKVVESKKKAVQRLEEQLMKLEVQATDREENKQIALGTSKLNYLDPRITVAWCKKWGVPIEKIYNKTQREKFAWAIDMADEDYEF
Nature of the experiment: Inhibition of Topoisomerase I (unknown origin) using pBR322 DNA as substrate at 50 uM incubated for 15 mins by EtBr staining based agarose gel electrophoresis method.

The next experiment concerns PC-3. Nature of the experiment: Antiproliferative activity against human PC-3 cells assessed as inhibition of cell growth incubated for 96 hrs by MTT based ELISA. It counts as functional. To be noted: PC-3, 96 h.
Experiment [3] concerns the target T1, DNA topoisomerase 1 (Homo sapiens). Nature of the experiment: Inhibition of Topoisomerase I (unknown origin) using pBR322 DNA as substrate at 10 uM incubated for 15 mins by EtBr staining based agarose gel electrophoresis method.
Another experiment has as its system HCT-116. Nature of the experiment: Antiproliferative activity against human HCT-116 cells assessed as inhibition of cell growth incubated for 96 hrs by MTT based ELISA. The experiment is classed as functional. The following applies: HCT-116, 96 h. On the technique in general: In an ELISA, binding on a coated surface is turned into a signal by an enzyme label.

In the next experiment the test system is MDA-MB-231. Nature of the experiment: Antiproliferative activity against human MDA-MB-231 cells assessed as inhibition of cell growth incubated for 96 hrs by MTT based ELISA. The experiment is classed as functional. The following applies: MDA-MB-231, 96 h.
For the next experiment, the system named is NCI-H2228. In words: Antiproliferative activity against human NCI-H2228 cells assessed as inhibition of cell growth incubated for 96 hrs by MTT based ELISA. The experiment is classed as functional. To be noted: NCI-H2228, 96 h.
The target in experiment [4] is DNA topoisomerase 2-alpha (Homo sapiens) (UniProt P11388). Nature of the experiment: Inhibition of Topoisomerase 2 (unknown origin) using pBR322 DNA as substrate at 50 uM incubated for 15 mins by EtBr staining based agarose gel electrophoresis method.
A further experiment concerns MCF7. In words: Antiproliferative activity against human MCF7 cells assessed as inhibition of cell growth incubated for 96 hrs by MTT based ELISA. The experiment is classed as functional. The following applies: MCF7, 96 h.
For experiment [5], the target named is T1, DNA topoisomerase 1 (Homo sapiens). Nature of the experiment: Inhibition of Topoisomerase I (unknown origin) using pBR322 DNA as substrate at 200 uM incubated for 15 mins by EtBr staining based agarose gel electrophoresis method relative to control.
Another experiment deals with Huh-7. In words: Antiproliferative activity against human Huh-7 cells assessed as inhibition of cell growth incubated for 96 hrs by MTT based ELISA. The following applies: Huh-7, 96 h. The experiment is classed as functional.
The target of experiment [6] is T1, DNA topoisomerase 1 (Homo sapiens). Nature of the experiment: Inhibition of Topoisomerase I (unknown origin) using pBR322 DNA as substrate at 1 uM incubated for 15 mins by EtBr staining based agarose gel electrophoresis method.
The target is the same in experiment [7]. Nature of the experiment: Inhibition of Topoisomerase I (unknown origin) using pBR322 DNA as substrate at 5 uM incubated for 15 mins by EtBr staining based agarose gel electrophoresis method.
Experiment [8] concerns the target DNA topoisomerase 2-alpha (Homo sapiens) (UniProt P11388). In words: Inhibition of Topoisomerase 2 (unknown origin) using pBR322 DNA as substrate at 10 uM incubated for 15 mins by EtBr staining based agarose gel electrophoresis method.
The target is the same in experiment [9]. In words: Inhibition of Topoisomerase 2 (unknown origin) using pBR322 DNA as substrate at 0.5 uM incubated for 15 mins by EtBr staining based agarose gel electrophoresis method.
In experiment [10] the target is T1, DNA topoisomerase 1 (Homo sapiens). In words: Inhibition of Topoisomerase I (unknown origin) using pBR322 DNA as substrate at 2 uM incubated for 15 mins by EtBr staining based agarose gel electrophoresis method.

The source made the active and inactive calls. The calls are words filed in the database; no cut-off is given here.

For `CN(C)CCCn1c2cc3c(cc2c2nc(Cl)c4ccccc4c21)OCO3`, the inhibition in [1] and in experiment [5] was greater than 95% in each case. Besides, the inhibition result in experiment [2], in [3] and in [4] was “Active” throughout. Moreover, the IC50 was found to be 470 nM in the experiment on PC-3; 260 nM with HCT-116; 560 nM with MDA-MB-231; 960 nM in the experiment with NCI-H2228; 370 nM with MCF7; 940 nM with Huh-7.
For `O=C(CCCn1c2cc3c(cc2c2[nH]c(=O)c4ccccc4c21)OCO3)NO`, the inhibition in [1] and in [5] was greater than 95% in each case. Further, the inhibition entry in [2] and in experiment [4] was “Active” throughout. Moreover, the IC50 in the experiment on PC-3 is 7140 nM; in the experiment on HCT-116 it was 4080 nM; in the experiment on MDA-MB-231 it was 4880 nM; in the experiment with NCI-H2228 it was greater than 10000 nM; in the experiment with MCF7, 6570 nM; in the experiment with Huh-7, greater than 10000 nM.
As to `O=C(CCCn1c2cc3c(cc2c2ncc4ccccc4c21)OCO3)NO`, the inhibition in [1] and in [5] was greater than 95% each time. The inhibition entry in [2], in [3] and in [4] was “Active” each time. In addition, the IC50 with PC-3 stood at 1550 nM; in the experiment on HCT-116, 1320 nM; in the experiment with MDA-MB-231, 950 nM; in the experiment with NCI-H2228, 3070 nM; with MCF7, 2320 nM; in the experiment with Huh-7 it was 2890 nM.
As for `COc1ccc2c(c1)c1ncc3ccccc3c1n2CCCN1CCN(C)CC1`, the inhibition entry in experiment [1], in experiment [2], in experiment [4] and in experiment [5] was “inactive” each time. Also, the IC50 in the experiment on PC-3 amounted to 740 nM; in the experiment on HCT-116 it was 1170 nM; with MDA-MB-231, 1680 nM; with NCI-H2228, 1840 nM; with MCF7, 1120 nM; in the experiment on Huh-7, 2240 nM.
Regarding `COc1ccc2c(c1)c1nc(Cl)c3ccccc3c1n2CCCC(=O)NO`, the inhibition in experiment [1] and in experiment [5] was greater than 95% in each case. The inhibition result in [2], in experiment [3] and in [4] was “Active” throughout. In addition, the IC50 came to 1660 nM in the experiment on PC-3; 740 nM in the experiment on HCT-116; 980 nM with MDA-MB-231; 2390 nM in the experiment on NCI-H2228; 1510 nM in the experiment with MCF7; 2980 nM with Huh-7.
Turning to `O=C(CCCn1c2cc3c(cc2c2nc(Cl)c4ccccc4c21)OCO3)NO`, the inhibition in experiment [1] and in experiment [5] was greater than 95% throughout. Besides, the inhibition entry in [2], in [3], in experiment [6], in experiment [7], in experiment [8] and in [9] was “Active” each time. Moreover, the inhibition result in experiment [4] and in experiment [10] was “Active” in each case. The IC50 with PC-3 came out at 2440 nM; with HCT-116, 1870 nM; in the experiment with MDA-MB-231, 1640 nM; with NCI-H2228, 3640 nM; with MCF7, 2860 nM; in the experiment with Huh-7 it was 4100 nM.
With `CN(C)CCCn1c2cc3c(cc2c2[nH]c(=O)c4ccccc4c21)OCO3`, the inhibition in experiment [1] and in [5] was greater than 95% each time. Besides, the inhibition entry in experiment [2], in experiment [3] and in experiment [4] was “Active” each time. In addition, the IC50 was found to be 630 nM with PC-3; 220 nM in the experiment with HCT-116; 480 nM in the experiment on MDA-MB-231; 1160 nM with NCI-H2228; 600 nM in the experiment on MCF7; 1240 nM with Huh-7.
For `COc1ccc2c(c1)c1ncc3ccccc3c1n2CCCN1CCN(C(C)C)CC1`, the inhibition entry in [1], in experiment [2], in [4] and in experiment [5] was “inactive” in each case. Further, the IC50 amounted to 1070 nM in the experiment on PC-3; 1380 nM in the experiment on HCT-116; 2040 nM with MDA-MB-231; 2040 nM in the experiment on NCI-H2228; 1450 nM in the experiment on MCF7; 2180 nM in the experiment with Huh-7.

The inhibition is the share of the control response that was lost under treatment. The IC50 is the midpoint of a concentration-inhibition curve.
